SMILES strings stand for the structures.

The assay concerns the target T1, E-selectin (Homo sapiens, UniProt P16581).
T1 sequence (P16581 whole entry): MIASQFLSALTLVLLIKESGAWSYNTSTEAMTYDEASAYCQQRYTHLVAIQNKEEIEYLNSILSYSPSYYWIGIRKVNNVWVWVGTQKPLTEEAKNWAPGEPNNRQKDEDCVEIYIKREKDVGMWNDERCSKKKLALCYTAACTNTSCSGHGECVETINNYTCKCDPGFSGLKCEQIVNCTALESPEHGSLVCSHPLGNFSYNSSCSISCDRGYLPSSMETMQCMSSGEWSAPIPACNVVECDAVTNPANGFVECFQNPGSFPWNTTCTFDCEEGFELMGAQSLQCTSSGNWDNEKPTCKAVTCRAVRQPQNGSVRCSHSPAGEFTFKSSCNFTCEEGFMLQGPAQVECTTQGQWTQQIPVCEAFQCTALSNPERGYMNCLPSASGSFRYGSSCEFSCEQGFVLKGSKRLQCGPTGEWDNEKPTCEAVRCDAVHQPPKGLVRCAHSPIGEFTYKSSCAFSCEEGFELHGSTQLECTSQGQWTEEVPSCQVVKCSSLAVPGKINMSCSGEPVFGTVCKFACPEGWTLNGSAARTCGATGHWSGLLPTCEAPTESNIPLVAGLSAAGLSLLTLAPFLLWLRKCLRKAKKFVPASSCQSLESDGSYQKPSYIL
The experiment in a line: Inhibitory concentration of compound to block the binding of sLE Xto E-selectin.
Consider `CC1OC(OC2CCCCC2OC2OC(C(N)=O)C(O)C(O[C@@H](CC3CCCCC3)C(=O)O)C2O)C(O)C(O)C1O` (stereo not given in full), for which the IC50 is over 10 mM.
In turn, `CC1OC(OC2CCCCC2OC2OC(CN)C(O)C(O[C@@H](Cc3ccccc3)C(=O)O)C2O)C(O)C(O)C1O` (stereo not given in full) returned an IC50 of over 10 mM.
The compound `COC(=O)CCCCCCCCO[C@@H]1OC(CO)[C@@H](O[C@@H]2O[C@@H](CO)[C@H](O)[C@H](O[C@]3(C(=O)O)C[C@@H](O)[C@@H](NC(C)=O)[C@@H](C(O)C(O)CO)O3)[C@@H]2O)[C@@H](O[C@@H]2O[C@H](C)[C@@H](O)[C@H](O)C2O)[C@@H]1NC(C)=O` (stereo not given in full) displayed an IC50 of 1 mM.
On to `C[C@@H]1O[C@@H](O[C@@H]2CCCC[C@H]2O[C@@H]2O[C@@H](CO)[C@H](O)[C@H](O[C@@H](Cc3ccccc3)C(=O)O)[C@@H]2O)[C@@H](O)[C@@H](O)[C@@H]1O`, for which the IC50 came to 0.35 mM.
In turn, `C[C@@H]1O[C@@H](O[C@@H]2CCCC[C@H]2O[C@@H]2O[C@@H](C(=O)O)[C@H](O)[C@H](O[C@@H](CC3CCCCC3)C(=O)O)[C@@H]2O)[C@@H](O)[C@@H](O)[C@@H]1O` came in with an IC50 of over 10 mM.
In turn, `C[C@@H]1O[C@@H](O[C@@H]2CCCC[C@H]2O[C@@H]2O[C@@H](C(=O)O)[C@H](O)[C@H](O[C@@H](Cc3ccccc3)C(=O)O)[C@@H]2O)[C@@H](O)[C@@H](O)[C@@H]1O` had an IC50 of over 10 mM.
Turning to `C[C@@H]1O[C@@H](O[C@@H]2CCCC[C@H]2O[C@@H]2O[C@@H](COS(=O)(=O)O)[C@H](O)[C@H](O[C@@H](Cc3ccccc3)C(=O)O)[C@@H]2O)[C@@H](O)[C@@H](O)[C@@H]1O`, the IC50 is over 10 mM.
As for `C[C@@H]1O[C@@H](O[C@@H]2CCCC[C@H]2O[C@@H]2O[C@@H](CO)[C@H](O)[C@H](O[C@@H](CC3CCCCC3)C(=O)O)[C@@H]2O)[C@@H](O)[C@@H](O)[C@@H]1O`, the IC50 was 0.08 mM.
On to `CC(=O)NCC1OC(OC2CCCCC2OC2OC(C)C(O)C(O)C2O)C(O)C(OC(Cc2ccccc2)C(=O)O)C1O` (stereo not given), for which the IC50 was over 10 mM.
As to `CC1OC(OC2CCCCC2OC2OC(CNC(=O)c3ccccc3)C(O)C(OC(Cc3ccccc3)C(=O)O)C2O)C(O)C(O)C1O` (stereo not given), the IC50 is over 10 mM.

These data come from ChEMBL document CHEMBL1134184, “Synthesis of sialyl Lewis(x) mimics. Modifications of the 6-position of galactose” (Bioorg Med Chem Lett, 2001).
